# Test results: PMC8032764 (Scientific Reports, 2021)
# Biological target: human GABAA α5β3γ2 (Homo sapiens, UniProt P18507+P31644)
# Assay: [3H]-Ro-15 4513 displacement assay
# Format: binding
# Set-up: expressed in transfected cells; host or cells: HEK293-EBNA, transient
# Protocol: IC50 values were derived from the inhibition curve and Ki values were calculated as described below.
# human GABAA α5β3γ2, sequence (P31644 32-462): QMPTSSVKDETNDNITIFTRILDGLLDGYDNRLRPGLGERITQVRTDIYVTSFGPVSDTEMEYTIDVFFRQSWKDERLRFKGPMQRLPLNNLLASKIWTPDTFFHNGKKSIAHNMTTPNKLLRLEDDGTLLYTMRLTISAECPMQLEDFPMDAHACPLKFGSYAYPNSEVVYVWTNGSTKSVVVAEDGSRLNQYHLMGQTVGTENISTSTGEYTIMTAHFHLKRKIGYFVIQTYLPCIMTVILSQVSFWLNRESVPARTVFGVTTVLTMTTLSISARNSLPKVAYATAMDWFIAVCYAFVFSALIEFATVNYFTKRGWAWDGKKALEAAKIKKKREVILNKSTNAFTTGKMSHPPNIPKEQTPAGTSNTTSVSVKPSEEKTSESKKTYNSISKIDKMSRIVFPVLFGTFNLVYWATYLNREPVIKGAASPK
# human GABAA α5β3γ2, sequence (P28472 26-473 partner): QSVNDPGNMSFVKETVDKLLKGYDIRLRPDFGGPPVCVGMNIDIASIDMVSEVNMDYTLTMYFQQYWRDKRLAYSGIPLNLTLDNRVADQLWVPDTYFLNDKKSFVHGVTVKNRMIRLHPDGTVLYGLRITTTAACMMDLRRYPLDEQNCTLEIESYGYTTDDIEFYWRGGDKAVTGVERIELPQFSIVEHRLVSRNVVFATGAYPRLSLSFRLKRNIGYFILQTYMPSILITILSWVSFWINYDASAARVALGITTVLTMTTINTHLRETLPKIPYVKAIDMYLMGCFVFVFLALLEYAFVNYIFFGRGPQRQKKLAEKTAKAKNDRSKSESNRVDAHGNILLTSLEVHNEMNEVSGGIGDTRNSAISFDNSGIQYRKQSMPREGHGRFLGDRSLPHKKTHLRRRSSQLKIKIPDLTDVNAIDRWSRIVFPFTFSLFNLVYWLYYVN
# human GABAA α5β3γ2, sequence (P18507 40-475): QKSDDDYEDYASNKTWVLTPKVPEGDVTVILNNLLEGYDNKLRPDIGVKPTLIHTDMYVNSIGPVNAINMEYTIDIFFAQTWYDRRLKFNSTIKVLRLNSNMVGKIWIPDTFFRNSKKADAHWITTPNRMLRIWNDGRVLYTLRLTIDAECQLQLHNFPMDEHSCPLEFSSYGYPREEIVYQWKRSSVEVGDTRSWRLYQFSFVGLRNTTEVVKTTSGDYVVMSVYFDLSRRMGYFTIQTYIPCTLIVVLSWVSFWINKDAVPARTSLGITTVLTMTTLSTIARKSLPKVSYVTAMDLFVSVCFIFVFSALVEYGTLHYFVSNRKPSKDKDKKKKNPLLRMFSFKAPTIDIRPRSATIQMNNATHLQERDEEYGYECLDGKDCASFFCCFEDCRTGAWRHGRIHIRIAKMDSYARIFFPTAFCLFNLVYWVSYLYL
smiles,measurement,value
Cc1onc(-c2ccc(F)cc2)c1COc1ccc(C(=O)N2CCS(=O)(=O)CC2)cn1 [basmisanil],Ki,7.6 ± 0.3 nM
